According to US8952030B2, “Morphinan derivative” (priority 2011, dated 2015):
Where two headings read alike, the source gives them in different places.

What was measured:
ICR male mice = experiment: Analgesic activity (acetic acid writhing method); type: in vivo; details: Mus musculus, sc; 3 mg/kg subcutaneous, 0.6% acetic acid i.p., writhing inhibition rate vs solvent group; hydrochloride was used; read-out: Inhibitory activities against writhing
Method: ICR male mice were used as groups each consisting of eight mice. Twenty minutes after the subcutaneous administration of a test compound (3 mg/kg), a 0.6% aqueous solution of acetic acid was intraperitoneally administered (0.1 mL/10 g body weight), and from the point 5 minutes after the administration, number of writhing observed over 20 minutes was counted. The analgesic activity was evaluated on the basis of the writhing inhibition rate (% inhibition) of the test compound administration group with respect to the writhing number of the solvent administration group.
1): Hydrochloride was used. 2): The evaluation results of the inhibitory activities against writhing were classified on the basis of the inhibition rate as follows. ≧90%, +++; 70≦%<90, ++; 50≦%<70, +

opioid μ receptor = molecular target: T1, opioid μ receptor (Homo sapiens, UniProt P35372); experiment: Opioid receptor functional test (Lance Ultra cAMP Kit), μ receptor agonist activity; type: cell-based; details: hydrochloride was used; for Emax at 10 µM: maximum concentration (10 μM), reaction did not reach the maximum, EC50 N.C., relative to DAMGO, read-out: μ Receptor responce rate at the maximum concentration (reference value); for EC50: CHO cells expressing μ opioid receptor, 10 μM forskolin, cAMP; for Emax: maximum response relative to DAMGO taken as 100%, read-out: μ Receptor Emax
T1 construct: expressed in transfected cells; host or cells: CHO cells
Method: (§1) Functional activities of the compounds of the present invention for the μ, […], and κ opioid receptors were investigated.
(§2) The test was performed according to a prescribed method by using Lance Ultra cAMP Kit (Perkin-Elmer). The agonist activities were evaluated as follows. The CHO cells expressing each opioid receptor (μ, δ, or κ) and a test compound were reacted in an assay buffer (1×HBSS, […], pH 7.4, […] IBMX (isobutylmethylxanthine), 7.5% BSA) for 30 minutes in the presence of 10 μM forskolin. Then, the cAMP detection reagent included in the kit was added, and after 1 hour, time-resolved fluorescence measurements were performed by using the EnVision plate reader (Perkin-Elmer). A dose-responce curve of the test compound was obtained from fluorescence values measured at 665 nm, and EC50 value and Emax value were calculated. The Emax value was calculated as a ratio of the maximum responce of the test compound with respect to the maximum responce of each control agent (SNC80 for δ, DAMGO for μ, U-69593 for κ) taken as 100%.
(§3) 1): Hydrochloride was used.

opioid κ receptor = molecular target: T2, opioid κ receptor (Homo sapiens, UniProt P41145); experiment: Opioid receptor functional test (Lance Ultra cAMP Kit), κ receptor agonist activity; type: cell-based; details: hydrochloride was used; for Emax at 10 µM: maximum concentration (10 μM), reaction did not reach the maximum, EC50 N.C., relative to U-69593, read-out: κ Receptor responce rate at the maximum concentration (reference value); for EC50: CHO cells expressing κ opioid receptor, 10 μM forskolin, cAMP, read-out: κ Receptor EC50 value; for Emax: maximum response relative to U-69593 taken as 100%, read-out: κ Receptor Emax
T2 construct: expressed in transfected cells; host or cells: CHO cells
Method: as §1, §2, §3

opioid δ receptor = molecular target: T3, opioid δ receptor (Homo sapiens, UniProt P41143); experiment: Opioid receptor functional test (Lance Ultra cAMP Kit), δ receptor agonist activity; type: cell-based; details: for Emax: read-out: δ Receptor Emax
T3 construct: expressed in transfected cells; host or cells: CHO cells
Method: as §1, §2, §3

[1] = CHO cells expressing δ opioid receptor, 10 μM forskolin, cAMP, hydrochloride was used, read-out: δ Receptor EC50 value
[2] = maximum response relative to SNC80 taken as 100%, hydrochloride was used

T3 sequence (P41143 whole entry): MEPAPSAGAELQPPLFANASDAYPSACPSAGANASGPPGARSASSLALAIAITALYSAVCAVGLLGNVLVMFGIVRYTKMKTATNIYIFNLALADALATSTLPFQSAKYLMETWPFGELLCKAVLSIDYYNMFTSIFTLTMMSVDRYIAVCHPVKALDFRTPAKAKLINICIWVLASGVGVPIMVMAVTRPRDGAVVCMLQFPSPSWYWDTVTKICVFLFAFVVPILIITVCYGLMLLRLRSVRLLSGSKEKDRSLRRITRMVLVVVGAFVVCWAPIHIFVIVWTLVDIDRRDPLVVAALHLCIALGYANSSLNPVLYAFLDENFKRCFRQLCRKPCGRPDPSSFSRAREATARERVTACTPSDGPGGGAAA
T2 sequence (P41145 whole entry): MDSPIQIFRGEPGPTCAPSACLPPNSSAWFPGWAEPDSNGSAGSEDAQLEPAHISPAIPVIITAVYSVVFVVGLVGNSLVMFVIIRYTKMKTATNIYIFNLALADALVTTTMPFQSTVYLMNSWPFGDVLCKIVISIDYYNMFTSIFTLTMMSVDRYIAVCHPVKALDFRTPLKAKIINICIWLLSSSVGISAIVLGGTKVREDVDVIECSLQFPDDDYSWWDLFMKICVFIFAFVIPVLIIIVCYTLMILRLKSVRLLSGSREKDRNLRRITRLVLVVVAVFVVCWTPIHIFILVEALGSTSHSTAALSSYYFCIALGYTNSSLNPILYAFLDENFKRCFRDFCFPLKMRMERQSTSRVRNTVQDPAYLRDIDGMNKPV
T1 sequence (P35372 whole entry): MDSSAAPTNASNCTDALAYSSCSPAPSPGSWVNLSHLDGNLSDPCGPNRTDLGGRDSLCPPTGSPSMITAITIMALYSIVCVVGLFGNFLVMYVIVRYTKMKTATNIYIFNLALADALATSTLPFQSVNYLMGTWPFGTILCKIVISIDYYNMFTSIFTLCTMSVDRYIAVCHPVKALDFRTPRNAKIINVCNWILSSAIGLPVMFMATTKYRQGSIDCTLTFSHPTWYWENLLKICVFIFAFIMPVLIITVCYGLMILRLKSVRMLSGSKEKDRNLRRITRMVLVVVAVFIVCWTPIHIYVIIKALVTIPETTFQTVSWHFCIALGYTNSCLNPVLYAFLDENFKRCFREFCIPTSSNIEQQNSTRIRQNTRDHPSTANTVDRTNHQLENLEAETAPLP

Row | Structure (SMILES) | inhibition in vivo at 3 mg/kg (ICR male mice) [%] | Emax at 10 µM (opioid μ receptor) [%] | Emax at 10 µM (opioid κ receptor) [%] | EC50 (opioid δ receptor) [nM] | Emax (opioid δ receptor) [%] | EC50 (opioid δ receptor; [1]) [nM] | Emax (opioid δ receptor; [2]) [%] | EC50 (opioid κ receptor) [nM] | Emax (opioid κ receptor) [%] | EC50 (opioid μ receptor) [nM] | Emax (opioid μ receptor) [%]
1 | O=C(c1ccccc1)N1C[C@H]2C[C@@]34CC[C@@H]1[C@@H]2[C@@]31CCN(CC2CC2)[C@@H]4Cc2ccc(O)cc21 [Compound 78, [(1S,3aR,5aS,6R,11bR,11cS)-14-(cyclopropylmethyl)-10-hydroxy-1,2,3a,4,5,6,7,11c-octahydro-3H-6,11b-(iminoethano)-1,5a-methanonaphtho[1,2-e]indol-3-yl](phenyl)methanone] | 50 to 70 | 4.7 | 5.5 | < 1 | 83 |  |  |  |  |  | 
2 | O=C(c1cccc(Cl)c1)N1C[C@H]2C[C@@]34CC[C@@H]1[C@@H]2[C@@]31CCN(CC2CC2)[C@@H]4Cc2ccc(O)cc21 [Compound 79, (3-chlorophenyl)[(1S,3aR,5aS,6R,11bR,11cS)-14-(cyclopropylmethyl)-10-hydroxy-1,2,3a,4,5,6,7,11c-octahydro-3H-6,11b-(iminoethano)-1,5a-methanonaphtho[1,2-e]indol-3-yl]methanone] | 70 to 90 | 8.8 | 9.6 |  |  | < 1 | 75 |  |  |  | 
3 | CC(C)NC(=O)N1C[C@H]2CC34CCC1C2C31CCN(CC2CC2)C4Cc2ccc(O)cc21 (stereo partly shown) [Compound 159] | 70 to 90 | 2.8 |  |  |  | < 1 | 76 | < 1 | 37 |  | 
4 | Cc1cc(C)nc(N2C[C@H]3C[C@@]45CCC2C3[C@@]42CCN(CC3CC3)[C@@H]5Cc3ccc(O)cc32)n1 (stereo partly drawn) [Compound 223, (1S,5aS,6R,11bR)-14-(cyclopropylmethyl)-3-(4,6-dimethylpyrimidin-2-yl)-2,3,3a,4,5,6,7,11c-octahydro-1H-6,11b-(iminoethano)-1,5a-methanonaphtho[1,2-e]indol-10-ol] | ≥ 90 |  |  |  |  |  |  |  |  |  | 
5 | Oc1ccc2c(c1)C13CCN(CC4CC4)C(C2)C12CCC1C3[C@@H](CN1c1cc(F)ccn1)C2 (stereo partly shown) [Compound 239] | ≥ 90 |  |  |  |  |  |  |  |  |  | 
6 | Oc1ccc2c(c1)C13CCN(CC4CC4)C(C2)C12CCC1C3[C@@H](CN1c1ccc3ccccc3n1)C2 (stereo partly shown) [Compound 243] | 70 to 90 |  |  |  |  |  |  |  |  |  | 
7 | Oc1ccc2c(c1)C13CCN(CC4CC4)C(C2)C12CCC1C3[C@@H](CN1c1cnccn1)C2 (stereo partly shown) [Compound 257] | 70 to 90 |  |  |  |  |  |  |  |  |  | 
8 | Cc1cc(C)nc(N2C[C@H]3C[C@@]45CCC2C3[C@@]42CCN(CC3CC3)[C@@H]5Cc3cccc(O)c32)n1 (stereo partly drawn) [Compound 293, (1S,5aS,6R,11bS)-14-(cyclopropylmethyl)-3-(4,6-dimethylpyrimidin-2-yl)-2,3,3a,4,5,6,7,11c-octahydro-1H-6,11b-(iminoethano)-1,5a-methanonaphtho[1,2-e]indol-11-ol] |  |  |  |  |  | < 10 | 91 | > 50 | 51 | > 50 | 17
9 | O=C(c1ccccc1)N1C[C@H]2C[C@@]34CCC1C2[C@@]31CCN(CC2CC2)[C@@H]4Cc2ccccc21 (stereo partly drawn) [Compound 298, [(1S,5aS,6R,11bR)-14-(Cyclopropylmethyl)-4,5,6,7-tetrahydro-1H-6,11b-(iminoethano)-1,5a-methanonaphtho[1,2-e]indol-3(2H,3aH,11cH)-yl](phenyl)methanone] | ≥ 90 |  |  |  |  | < 10 | 102 | > 100 | 32 | > 50 | 16
10 | Cc1cc(C)nc(N2C[C@H]3CC45CCC2C3C42CCN(CC3CC3)C5Cc3ccccc32)n1 (stereo partly shown) [Compound 300] |  |  |  |  |  | < 50 | 105 | > 500 | 39 | > 100 | 26
11 | NC(=O)c1ccc2c(c1)[C@]13CCN(CC4CC4)[C@H](C2)[C@]12CCC1C3[C@@H](CN1C(=O)c1ccccc1)O2 (stereo partly drawn) [Compound 306, (1S,5aS,6R,11bR)-3-benzoyl-14-(cyclopropylmethyl)-2,3,3a,4,5,6,7,11c-octahydro-1H-6,11b-(iminoethano)-1,5a-epoxynaphtho[1,2-e]indole-10-carboxamide] |  | 2.8 | 9.5 |  |  | < 10 | 84 |  |  |  | 
12 | Nc1ccc2c(c1)[C@]13CCN(CC4CC4)[C@H](C2)[C@]12CCC1C3[C@@H](CN1C(=O)c1ccccc1)O2 (stereo partly drawn) [Compound 308, [(1S,5aS,6R,11bR)-10-Amino-14-(cyclopropylmethyl)-4,5,6,7-tetrahydro-1H-6,11b-(iminoethano)-1,5a-epoxynaphtho[1,2-e]indol-3(2H,3aH,11cH)-yl](phenyl)methanone] |  | 2.5 |  |  |  | < 10 | 94 | > 100 | 38 |  | 
13 | COc1cc2c(cc1[N+](=O)[O-])C[C@H]1N(CC3CC3)CC[C@@]23C2C4CC[C@@]13C[C@@H]2CN4c1nc(C)cc(C)n1 (stereo partly drawn) [Compound 311, (1S,5aS,6R,11bR)-14-(cyclopropylmethyl)-3-(4,6-dimethylpyrimidin-2-yl)-10-methoxy-9-nitro-2,3,3a,4,5,6,7,11c-octahydro-1H-6,11b-(iminoethano)-1,5a-methanonaphtho[1,2-e]indole] |  |  |  |  |  | < 50 | 82 | > 500 | 16 | > 100 | 18
14 | Oc1ccc2c(c1)C13C(O)CN(CC4CC4)C(C2)C12CCC1C3[C@@H](CN1Cc1ccccc1)O2 (stereo partly drawn) [Compound 329, (1S,3aR,5aS,6R,11bS,11cS,12R)-3-Benzyl-14-(cyclopropylmethyl)-1,2,3a,4,5,6,7,11c-octahydro-1H-6,11b-(iminoethano)-1,5a-epoxynaphtho[1,2-e]indole-10,12-diol] |  | 0.9 |  |  |  | < 1 | 76 | > 10 | 14 |  | 
15 | C[C@H]1[C@H]2C[C@@]34CC[C@H]([C@@H]2[C@]32CCN(CC3CC3)[C@@H]4Cc3ccc(O)cc32)N1C(=O)c1ccccc1 [Compound 334, [(1S,2S,3aR,5aS,6R,11bS,11cS)-14-(Cyclopropylmethyl)-10-hydroxy-2-methyl-1,2,3a,4,5,6,7,11c-octahydro-3H-6,11b-(iminoethano)-1,5a-methanonaphtho[1,2-e]indol-3-yl](phenyl)methanone] |  | 2.9 |  |  |  | < 1 | 87 | > 1 | 39 |  | 
